Measured values: article PMC11676667, “Pharmacokinetics of Oral Cannabinoid Δ8-Tetrahydrocannabivarin and Its Main Metabolites in Healthy Participants” (Pharmaceuticals, 2024)

Key:
CB2 receptors = test system: CB2 receptors; design: method as in PMID 21470208; conditions: in vitro; cited from earlier work
[1] = Plasma pharmacokinetics after single oral dose of Δ8-THCV in MCT oil (LC-MS/MS, non-compartmental analysis); format: in vivo, human; design: Clast (last quantifiable concentration): unit not given here; conditions: for Clast (last quantifiable concentration) / tlast (time to last quantifiable concentration) / concentration at 0.5 h / concentration at 1 h / concentration at 2 h / concentration at 4 h / concentration at 6 h / concentration at 8 h: plasma; for plasma concentration: Predose; for concentration at 0.5 h / concentration at 1 h / concentration at 2 h / concentration at 4 h / concentration at 6 h / concentration at 8 h: human, oral
In short: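 Healthy participants received single oral Δ8-THCV in MCT oil (50 mg/mL; 12.5-200 mg, or placebo) after a high-fat, high-calorie breakfast, with ≥1-week washout. Plasma (K2EDTA) sampled predose and 0.5-8 h post-dose, assayed by validated LC-MS/MS including metabolites; PK by non-compartmental analysis, sub-LLOQ values set to 0.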

[2] = 12.5 mg single oral Δ8-THCV in MCT oil, Mean (±SD)
[3] = 12.5 mg single oral Δ8-THCV in MCT oil, Median (Range)
[4] = 25 mg single oral Δ8-THCV in MCT oil, Mean (±SD)
[5] = 25 mg single oral Δ8-THCV in MCT oil, Median (Range)
[6] = 50 mg single oral Δ8-THCV in MCT oil, Mean (±SD)
[7] = 50 mg single oral Δ8-THCV in MCT oil, Median (Range)
[8] = 100 mg single oral Δ8-THCV in MCT oil, Mean (±SD)
[9] = 100 mg single oral Δ8-THCV in MCT oil, Median (Range)
[10] = 200 mg single oral Δ8-THCV in MCT oil, Mean (±SD)
[11] = 200 mg single oral Δ8-THCV in MCT oil, Median (Range)
[12] = 12.5 mg, 12.5 mg Δ8-THCV dose, Mean (SD, %CV)
[13] = 12.5 mg, 12.5 mg Δ8-THCV dose, Median (IQ Range)
[14] = 25 mg, 25 mg Δ8-THCV dose, Mean (SD, %CV)
[15] = 25 mg, 25 mg Δ8-THCV dose, Median (IQ Range)
[16] = 50 mg, 50 mg Δ8-THCV dose, Mean (SD, %CV)
[17] = 50 mg, 50 mg Δ8-THCV dose, Median (IQ Range)

Which CB2 receptor activation (CB2 receptors) does the source give for `CCCc1cc(O)c2c(c1)OC(C)(C)[C@@H]1CC=C(C)C[C@@H]21` [Δ8-THCV, Δ8-tetrahydrocannabivarin] here?
Its CB2 receptor activation is “activate CB2 receptors”.

What about the “Clast (last quantifiable concentration)” value [1, 2] of the same molecule?
The value was 0.9 (±0.3).

And the “tlast (time to last quantifiable concentration)” value (“tlast” for short) [1, 2]?
Its value is 5.3 (±2.3).

What about the “Clast (last quantifiable concentration)” value [1, 3] of the same molecule?
Its value is 0.7 (0.6–1.5).

And the “tlast” value [1, 3]?
Its value is 5 (2–8).

What about the “Clast (last quantifiable concentration)” value [1, 4] of the same molecule?
The value was 1.1 (±0.4).

What about the “tlast” value [1, 4] of the same molecule?
The value was 6.3 (±1.9).

What about the “Clast (last quantifiable concentration)” value [1, 5] of the same molecule?
The value was 1 (0.5–1.8).

And the “tlast” value [1, 5]?
Its value is 7 (4–8).

And the “Clast (last quantifiable concentration)” value [1, 6]?
The value was 2.3 (±1.5).

And the “tlast” value [1, 6]?
Its value is 7.9 (±0.5).

And the “Clast (last quantifiable concentration)” value [1, 7]?
Its value is 2.2 (0.6–5.5).

And the “tlast” value [1, 7]?
The value was 8 (6–8).

And the “Clast (last quantifiable concentration)” value [1, 8]?
Its value is 4.1 (±3.1).

What about the “tlast” value [1, 8] of the same molecule?
The value was 8 (±0).

And the “Clast (last quantifiable concentration)” value [1, 9]?
The value was 3.1 (0.8–9.9).

And the “tlast” value [1, 9]?
Its value is 8 (8–8).

What about the “Clast (last quantifiable concentration)” value [1, 10] of the same molecule?
Its value is 21.2 (±23.2).

What about the “tlast” value [1, 10] of the same molecule?
Its value is 8 (±0).

And the “Clast (last quantifiable concentration)” value [1, 11]?
The value was 13.4 (1.5–87.6).

What about the “tlast” value [1, 11] of the same molecule?
The value was 8 (8–8).

What about the plasma concentration ([1]; 12.5 mg Δ8-THCV dose, Mean (SD, %CV)) of the same molecule?
The plasma concentration was 0 (±0, --) ng/mL.

What about the plasma concentration ([1]; 12.5 mg Δ8-THCV dose, Median (IQ Range)) of the same molecule?
Its plasma concentration is 0 (0–0) ng/mL.

And the plasma concentration ([1]; 25 mg Δ8-THCV dose, Mean (SD, %CV))?
The plasma concentration was 0 (±0, --) ng/mL.

What about the plasma concentration ([1]; 25 mg Δ8-THCV dose, Median (IQ Range)) of the same molecule?
Its plasma concentration is 0 (0–0) ng/mL.

And the plasma concentration ([1]; 50 mg Δ8-THCV dose, Mean (SD, %CV))?
The plasma concentration was 0 (±0, --) ng/mL.

What about the plasma concentration ([1]; 50 mg Δ8-THCV dose, Median (IQ Range)) of the same molecule?
The plasma concentration was 0 (0–0) ng/mL.

And the plasma concentration ([1]; 100 mg Δ8-THCV dose, Mean (SD, %CV))?
Its plasma concentration is 0 (±0, --) ng/mL.

What about the plasma concentration ([1]; 100 mg Δ8-THCV dose, Median (IQ Range)) of the same molecule?
Its plasma concentration is 0 (0–0) ng/mL.

And the plasma concentration ([1]; 200 mg Δ8-THCV dose, Mean (SD, %CV))?
The plasma concentration was 0 (±0, --) ng/mL.

What about the plasma concentration ([1]; 200 mg Δ8-THCV dose, Median (IQ Range)) of the same molecule?
The plasma concentration was 0 (0–0) ng/mL.

And the “median AUClast ratio Δ8-THCV-COOH/Δ8-THCV/11-OH-Δ8-THCV” value ([1]; after the 200 mg dose, Δ8-THCV = 1)?
The value was 1.

What about the concentration at 0.5 h [1, 12] of the same molecule?
The concentration at 0.5 h was 0 ng/mL.

And the concentration at 0.5 h [1, 13]?
The concentration at 0.5 h was 0 ng/mL.

And the concentration at 1 h [1, 12]?
The concentration at 1 h was 0.1 ng/mL.

What about the concentration at 1 h [1, 13] of the same molecule?
Its concentration at 1 h is 0 ng/mL.

And the concentration at 2 h [1, 12]?
Its concentration at 2 h is 0.4 ng/mL.

And the concentration at 2 h [1, 13]?
The concentration at 2 h was 0 ng/mL.

And the concentration at 4 h [1, 12]?
Its concentration at 4 h is 0.7 ng/mL.

And the concentration at 4 h [1, 13]?
Its concentration at 4 h is 0.6 ng/mL.

What about the concentration at 6 h [1, 12] of the same molecule?
The concentration at 6 h was 0.5 ng/mL.

What about the concentration at 6 h [1, 13] of the same molecule?
The concentration at 6 h was 0 ng/mL.

What about the concentration at 8 h [1, 12] of the same molecule?
The concentration at 8 h was 0.2 ng/mL.

What about the concentration at 8 h [1, 13] of the same molecule?
The concentration at 8 h was 0 ng/mL.

What about the concentration at 0.5 h [1, 14] of the same molecule?
The concentration at 0.5 h was 0 ng/mL.

And the concentration at 0.5 h [1, 15]?
Its concentration at 0.5 h is 0 ng/mL.

What about the concentration at 1 h [1, 14] of the same molecule?
Its concentration at 1 h is 0.3 ng/mL.

What about the concentration at 1 h [1, 15] of the same molecule?
The concentration at 1 h was 0 ng/mL.

What about the concentration at 2 h [1, 14] of the same molecule?
Its concentration at 2 h is 1.4 ng/mL.

And the concentration at 2 h [1, 15]?
The concentration at 2 h was 0.3 ng/mL.

And the concentration at 4 h [1, 14]?
Its concentration at 4 h is 1.8 ng/mL.

What about the concentration at 4 h [1, 15] of the same molecule?
Its concentration at 4 h is 1.5 ng/mL.

And the concentration at 6 h [1, 14]?
The concentration at 6 h was 0.9 ng/mL.

What about the concentration at 6 h [1, 15] of the same molecule?
Its concentration at 6 h is 0.7 ng/mL.

What about the concentration at 8 h [1, 14] of the same molecule?
The concentration at 8 h was 0.4 ng/mL.

And the concentration at 8 h [1, 15]?
Its concentration at 8 h is 0.3 ng/mL.

And the concentration at 0.5 h [1, 16]?
Its concentration at 0.5 h is 0.1 ng/mL.

And the concentration at 0.5 h [1, 17]?
Its concentration at 0.5 h is 0 ng/mL.

And the concentration at 1 h [1, 16]?
Its concentration at 1 h is 0.5 ng/mL.

What about the concentration at 1 h [1, 17] of the same molecule?
The concentration at 1 h was 0 ng/mL.

And the concentration at 2 h [1, 16]?
The concentration at 2 h was 2.6 ng/mL.

What about the concentration at 2 h [1, 17] of the same molecule?
The concentration at 2 h was 0 ng/mL.

What about the concentration at 4 h [1, 16] of the same molecule?
The concentration at 4 h was 4.3 ng/mL.

What about the concentration at 4 h [1, 17] of the same molecule?
Its concentration at 4 h is 2.4 ng/mL.

And the concentration at 6 h [1, 16]?
Its concentration at 6 h is 6.1 ng/mL.

What about the concentration at 6 h [1, 17] of the same molecule?
Its concentration at 6 h is 2.8 ng/mL.

What about the concentration at 8 h [1, 16] of the same molecule?
Its concentration at 8 h is 2.2 ng/mL.

And the concentration at 8 h [1, 17]?
The concentration at 8 h was 2.2 ng/mL.
